Legend:
[1] = tested on: Bacillus pumilus AP 7; test: Bacterial strains and insecticide compatibility (mixed in tubes, CFU counts); format: cell-based; conditions: Example 1; mixed for 2 wk at label rates
Procedure: The strains of Blend 20, each with a minimum concentration of 1×10^8 CFU per ml were individually evaluated for their compatibility with commonly used liquid insecticides. The strains were evaluated individually to make recovery of each bacterium apparent, as the colony morphologies are similar. Freshly prepared bacteria stock solutions were evaluated for their ability to survive being ‘tank’ mixed with insecticides in 50 ml centrifuge tubes with three different insecticides mixed together for 1 h, 24 h, and 1 wk, and 2 wk at 25 s ° C. under ambient light. The bacteria were evaluated for compatibility with insecticides which included three chemical groups: neonicotinoids, phenylpyrazoles, and pyrethroids. The pesticides evaluated were bifenthrin (Talstar Pro, FMC Corporation, Philadelphia, Pa.), fipronil (Termidor SC, BASF Corporation, Florham Park, N.J.), imidacloprid (Merit 2F, Bayer, Research Triangle Park, N.C.). […] Bifenthrin and fipronil were evaluated at high and low label rates. […] Bacterial populations (number of colony forming units [CFU]) in the suspensions were determined by plating 50 μl of the 10^−5 serial dilutions onto three TSA plates, incubating plates for 24 h and then counting the number of bacterial colonies on each plate.
Bacterial strains from multiple genera with known populations (minimum of 1×10^8 colony forming units (CFU)/ml (0.03 oz)) were evaluated individually for their compatibility with commonly turfgrass insecticides. […]
The strains that comprise Blend 20, each with aminimum concentration of 1×10^8 CFU per ml, were individually evaluated for their compatibility with commonly used liquid neonicotinoid insecticides. The strains within the blend were evaluated individually to make recovery of each bacterium apparent, as the colony morphologies are similar. Freshly prepared bacteria stock solutions were evaluated for survival when mixed with three different insecticides mixed in separate 50 mL centrifuge tubes for 1 and 24 h, and 1 and 2 wk at 25° C. under ambient light. […]

[2] = tested on: Bacillus pumilus AP 18; test: as above; format: cell-based; conditions: Example 1; mixed for 2 wk at label rates
Procedure: (§1) The strains of Blend 20, each with a minimum concentration of 1×10^8 CFU per ml were individually evaluated for their compatibility with commonly used liquid insecticides. The strains were evaluated individually to make recovery of each bacterium apparent, as the colony morphologies are similar. Freshly prepared bacteria stock solutions were evaluated for their ability to survive being ‘tank’ mixed with insecticides in 50 ml centrifuge tubes with three different insecticides mixed together for 1 h, 24 h, and 1 wk, and 2 wk at 25 s ° C. under ambient light. The bacteria were evaluated for compatibility with insecticides which included three chemical groups: neonicotinoids, phenylpyrazoles, and pyrethroids. The pesticides evaluated were bifenthrin (Talstar Pro, FMC Corporation, Philadelphia, Pa.), fipronil (Termidor SC, BASF Corporation, Florham Park, N.J.), imidacloprid (Merit 2F, Bayer, Research Triangle Park, N.C.). While Termidor SC is not used on golf courses, it was selected for convenience because the active ingredient (Fipronil) is formulated as a granular product and widely used for mole cricket management (24). Bacteria and pesticide solutions were prepared based on the label recommendations for volume of area covered (bifenthrin, imidacloprid) or amount of active ingredient per volume needed (fipronil). Bifenthrin and fipronil were evaluated at high and low label rates. Bifenthrin was mixed at a rate of 29.6 and 14.8 ml per 92.9 m^2 (7.9% active ingredient, 302 g per 3,785 ml). Imidacloprid was mixed a rate of 17 ml per 92.9 m^2 (21.4%, 907 g per 3,785 ml). Fipronil was prepared at 47.3 (0.125% dilution) and 23.65 ml (0.06% dilution) per 3,785 ml (9.1% active ingredient, 363 g per 3,785 ml). After the allotted time, the centrifuge tubes were vigorously shaken to evenly distribute bacterial cells before serial 10-fold dilutions. Serial dilutions were made of each bacterial suspension into sterile water blanks to a final dilution of 10^−5. Bacterial populations (number of colony forming units [CFU]) in the suspensions were determined by plating 50 μl of the 10^−5 serial dilutions onto three TSA plates, incubating plates for 24 h and then counting the number of bacterial colonies on each plate.
(§2) The strains that comprise Blend 20, each with aminimum concentration of 1×10^8 CFU per ml, were individually evaluated for their compatibility with commonly used liquid neonicotinoid insecticides. The strains within the blend were evaluated individually to make recovery of each bacterium apparent, as the colony morphologies are similar. Freshly prepared bacteria stock solutions were evaluated for survival when mixed with three different insecticides mixed in separate 50 mL centrifuge tubes for 1 and 24 h, and 1 and 2 wk at 25° C. under ambient light. Bacteria and pesticide solutions were prepared based on the label recommendations for volume of area covered. The pesticides evaluated were imidacloprid (Ferti-lome® Tree and Shrub Systemic Insect Drench, 1.47% active ingredient, Voluntary Purchasing Groups, Inc., Bonham, Tex., USA), imidacloprid (Merit® 2F, 21.4% active ingredient, Bayer Environmental Sciences, Research Triangle Park, N.C., USA), and imidacloprid and clothianidin (Bayer Advanced 12 Month Tree and Shrub Protect and Feed II®, 0.74% imidacloprid and 0.37% clothianidin active ingredient, Bayer Environmental Sciences). The Ferti-lome® product was mixed at a rate of 89 mL of product per 3785 mL. Merit® 2F was mixed at a rate of 17 mL of product per 92.9 m^2. Bayer Advanced Tree and Shrub Protect and Feed II® was mixed at a rate of 89 mL of product per 3785 mL.
(§3) After the allotted time, the centrifuge tubes were vigorously shaken to evenly distribute bacterial cells before completing five serial 10-fold dilutions. Serial dilutions were made of each bacterial suspension into sterile water blanks to a final dilution of 10^−5. […]

[3] = tested on: Bacillus sphaericus AP 282; test: as above; format: cell-based; conditions: Example 1; mixed for 2 wk at label rates
Procedure: as §1, §2, §3

[4] = tested on: tawny mole crickets; test: Field plots: tawny mole cricket damage ratings (Cobb and Mack); format: in vivo, Neoscapteriscus vicinus Scudder; conditions: scale 0-9
Procedure: On 26 Mar. 2017 field plots were established at the Auburn University Turfgrass Research Unit, Auburn, Ala. over hybrid and common bermudagrass tawny mole cricket infested areas in a Marvyn loamy sand. Plots were 3 m×2 m with at least 2 m separating plots. Field plots were assessed for mole cricket damage based on the rating system of Cobb and Mack (26). A 1 m×1 m frame divided into a grid with 9 subsections was used to score the plots on a scale of 0-9, where 0 indicates no damage and 9 indicates activity in each section. After the initial assessment, plots were assigned to a treatment group based on damage ratings. […] Damage assessments were taken from seven locations (center, top left, top right, bottom left, bottom right, middle left, and middle right), with one location sampled during each damage assessment period for all treatments. The experiment evaluated four treatments, PGPR-treated (Blend 20), bifenthrin-treated, PGPR+bifenthrin-treated, and non-treated control. On 27 Mar. 2017 (Day 0) and 23 April (Day 27) plots were treated with a backpack sprayer. Bacteria-treated plots received 3 L (500 ml/m^2) freshly-prepared aqueous bacterial suspension of 1×10^7 CFU per ml. Bifenthrin-treated plots were treated at a rate of 29.6 ml per 92.9 m^2. The sprayer applied 244 ml of this mixture per plot. PGPR+ bifenthrin plots were treated with the 3 L of bacteria and 244 ml of bifenthrin mixed together in the same tank. The non-treated plots were treated with 3 L of distilled water coincident with treatment of the other plots. After treating, the plots were hand watered with 76.2 L of water (1.27 cm) to move the treatments into the root zone. The experiment was replicated six times for each treatment.
Top growth (fresh and dry mass) in the cylinder trials were analyzed separately using repeated measures of multivariate analysis of covariance (MANCOVA) due to trial being a significant factor (P<0.05, JMP Version 13. SAS Institute Inc., Cary, N.C., 1989-2007). Root fresh and dry mass, and length were analyzed using orthogonal contrasts (P<0.05, JMP Version 13. SAS Institute Inc., Cary, N.C., 1989-2007). The number of mole crickets recovered and mole cricket weights from each treatment were used as covariants. Mole cricket weights were analyzed using analysis of variance (ANOVA), Student's t-test. The number of mole crickets recovered and mole cricket weights within treatments were not significant in either PVC arena trial. For the field trial, LSMeans, Student's t-Test (LSD, P<0.05) was used to compare each sampling period's mole cricket damage ratings.

[5] = tested on: Pseudomonas fluorescens; conditions: imidacloprid as cotton seed treatment; cited from earlier work

In the case of `Cc1c(COC(=O)[C@@H]2[C@H](/C=C(\Cl)C(F)(F)F)C2(C)C)cccc1-c1ccccc1` (racemic) [Bifenthrin, bifenthrin], the “bacterial populations when mixed with insecticide” value (“bacterial populations when mixed” below) [1] is reported as “not negatively impacted”, the “bacterial populations when mixed” value [2] is reported as “not negatively impacted” and the “bacterial populations when mixed” value [3] is reported as “not negatively impacted”. The “Mean Mole Cricket Damage Rating” value ([4]; 0 days after treatment) was 7.52a, the “Mean Mole Cricket Damage Rating” value ([4]; 14 days after treatment) was 7.95a and the “Mean Mole Cricket Damage Rating” value ([4]; 21 days after treatment) was 7.14a. The “Mean Mole Cricket Damage Rating” value ([4]; 28 days after treatment (1 after re-treatment)) was 1.71b, the “Mean Mole Cricket Damage Rating” value ([4]; 33 days after treatment (5 after re-treatment)) was 5.10ab and the “Mean Mole Cricket Damage Rating” value ([4]; 42 days after treatment (15 after re-treatment)) was 3.90ab. The “Mean Mole Cricket Damage Rating” value ([4]; 46 days after treatment (19 after re-treatment)) was 1.48b, the “Mean Mole Cricket Damage Rating” value ([4]; 50 days after treatment (23 after re-treatment)) was 1.86b and the “Mean Mole Cricket Damage Rating” value ([4]; 56 days after treatment (29 after re-treatment)) was 4.43b.
In the case of `CC[C@H](C)[C@H]1O[C@]2(C=C[C@@H]1C)C[C@@H]1C[C@@H](C/C=C(\C)[C@@H](O[C@H]3C[C@H](OC)[C@@H](O[C@H]4C[C@H](OC)[C@@H](O)[C@H](C)O4)[C@H](C)O3)[C@@H](C)/C=C/C=C3\CO[C@@H]4[C@H](O)C(C)=C[C@@H](C(=O)O1)[C@]34O)O2` [avermectin], the “Pseudomonas fluorescens populations when mixed with pesticide or extract” value (from here on “Pseudomonas fluorescens populations”) [5] is given as “remained stable”.
In the case of `CCOP(=S)(OCC)Oc1nc(Cl)c(Cl)cc1Cl` [chlorpyriphos], the “Pseudomonas fluorescens populations” value [5] is listed as “remained stable”.
In the case of `CN(C)C(=S)SSC(=S)N(C)C` [thiram], the “Pseudomonas fluorescens populations” value [5] is given as “not negatively impacted”.
For `O=C1C2CC=CCC2C(=O)N1SC(Cl)(Cl)Cl` (stereo not shown) [captan], the “Pseudomonas fluorescens populations” value [5] is listed as “negatively impacted”.
For `CNC(=O)Oc1cccc2c1OC(C)(C)C2` [carbofuran], the “Pseudomonas fluorescens populations” value [5] is given as “remained stable”.
In the case of mancozeb, the “Pseudomonas fluorescens populations” value [5] is listed as “negatively impacted”.
With `O=[N+]([O-])NC1=NCCN1Cc1ccc(Cl)nc1` [Imidacloprid, imidacloprid] the “bacterial populations when mixed” value [1] was “not negatively impacted”, the “bacterial populations when mixed” value [2] was “not negatively impacted” and the “bacterial populations when mixed” value [3] was “not negatively impacted”. For the same compound, the “Pseudomonas fluorescens populations” value [5] was “negatively impacted”.
In the case of `COC(=O)N(C(=O)N1CO[C@@]2(C(=O)OC)Cc3cc(Cl)ccc3C2=N1)c1ccc(OC(F)(F)F)cc1` [indoxacarb], the “Pseudomonas fluorescens populations” value [5] is given as “not”.
For `N#Cc1nn(-c2c(Cl)cc(C(F)(F)F)cc2Cl)c(N)c1[S+]([O-])C(F)(F)F` (stereo not shown) [Fipronil, fipronil], the “bacterial populations when mixed” value [1] was “not negatively impacted”, the “bacterial populations when mixed” value [2] was “not negatively impacted” and the “bacterial populations when mixed” value [3] was “not negatively impacted”.
In the case of `COC(=O)Nc1nc2ccccc2[nH]1` [carbendazim], the “Pseudomonas fluorescens populations” value [5] is listed as “not negatively impacted”.
For `CCCC1COC(Cn2cncn2)(c2ccc(Cl)cc2Cl)O1` (stereo not shown) [propiconazole], the “Pseudomonas fluorescens populations” value [5] is listed as “negatively impacted”.

From US20200187507A1, “INOCULANTS INCLUDING PLANT GROWTH PRODUCING RHIZOBACTERIA (PGPR) AND INSECTIDES FOR PROMOTING PLANT GROWTH AND HEALTH” (Auburn University, priority 2018, published 2020)
